Data on 43 compounds can be found in patent US20230365546A1, “5-SUBSTITUTED INDOLE 3-AMIDE DERIVATIVES, PREPARATION METHOD AND USE THEREOF” (ORIGIANT PHARMACEUTICAL CO., LTD, priority 2020, published 2023).

Structures are written as SMILES. Some results are limits rather than exact numbers.

One assay deals with HT-29 cells. Put plainly: Protection against programmed necrosis of HT-29 cells (TNF α/Smac mimetic/Z-VAD-FMK, CCK8). Conditions: Homo sapiens, TNF α/Smac mimetic/Z-VAD-FMK induced 24 h, CCK8, read-out: HT-29 (EC50). The assay is classed as cell-based. Here is the method:
In vitro protection against programmed necrosis of HT-29 cells was conducted by ourselves.
DMEM medium was purchased from Gibco Inc., penicillin and streptomycin were purchased from HyClone Inc., TNF α was purchased from PeproTech Inc., Smac mimetic and Z-VAD-FMK were purchased from Selleck Inc., CCK8 was purchased from Medchem Express Inc.
HT-29 cells (colon cancer cells) were cultured in DMEM+10% FBS+Penicillin/Streptomycin medium. During the experiments, HT-29 cells in logarithmic growth phase were harvested, seeded in a 96-well plate at specific numbers per well (typically 8×10^3 cells/well of adherent cells) and cultured overnight in a 37° C., 5% CO2 cell culture incubator. The next day, the compounds to be tested were diluted with culture medium to the corresponding concentrations and added into the corresponding wells of a 96-well plate, with 3 replicate wells for each sample, and a Vehicle control group and a blank Control group containing only culture medium were set at the same time. […] The absorbance was measured at 495 nm wavelength using a microplate reader, and the protection rate of the drug on the cells necrosis was calculated according to the following formula:
Protection rate of cell necrosis=[(X−C0)/(C−C0)]×100%
Wherein, C, C0, and X represent the mean absorbance values of the Vehicle control group, Blank control group and Drug treatment group, respectively.

The next assay has as its target RIPK1 (Homo sapiens (Human), UniProt Q13546). Put plainly: In vitro kinase assay (Eurofins Kinase Profiler), IC50. Type of assay: biochemical. To be noted: 0.001-10 μM, read-out: RIPK 1 (IC50).

Sequence of RIPK1 (Q13546 whole entry): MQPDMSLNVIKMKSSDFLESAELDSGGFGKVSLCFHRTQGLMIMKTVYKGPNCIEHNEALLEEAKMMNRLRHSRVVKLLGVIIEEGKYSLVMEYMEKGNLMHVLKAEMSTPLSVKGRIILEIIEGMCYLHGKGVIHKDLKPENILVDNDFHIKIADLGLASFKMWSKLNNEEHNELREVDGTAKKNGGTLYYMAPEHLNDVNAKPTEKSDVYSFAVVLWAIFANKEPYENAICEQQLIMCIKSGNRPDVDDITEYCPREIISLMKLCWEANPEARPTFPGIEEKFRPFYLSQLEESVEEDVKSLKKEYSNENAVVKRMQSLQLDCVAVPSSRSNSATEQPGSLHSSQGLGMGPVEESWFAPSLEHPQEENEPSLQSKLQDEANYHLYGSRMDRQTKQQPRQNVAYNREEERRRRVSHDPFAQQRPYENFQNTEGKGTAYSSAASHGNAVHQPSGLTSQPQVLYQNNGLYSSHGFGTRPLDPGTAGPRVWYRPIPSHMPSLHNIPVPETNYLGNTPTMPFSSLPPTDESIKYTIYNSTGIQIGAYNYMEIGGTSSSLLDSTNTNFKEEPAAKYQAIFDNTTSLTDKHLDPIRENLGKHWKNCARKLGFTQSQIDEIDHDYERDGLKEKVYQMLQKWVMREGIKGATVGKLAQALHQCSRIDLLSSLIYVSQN

As for `O=C(NCc1ccc(N2CCOCC2)cc1)c1c[nH]c2ccc(-c3ccn4nc(NC(=O)C5CC5)nc4c3)cc12` [Compound 97], the EC50 with HT-29 cells is at least 1000 nM. Moreover, the IC50 at RIPK1 was at least 1000 nM.
Regarding `Cn1cc(C(=O)NCc2ccc(N3CCOCC3)cc2)c2cc(-c3ccn4nc(NC(=O)C5CC5)nc4c3)ccc21` [Compound 98], the EC50 in the assay with HT-29 cells is at least 1000 nM. In addition, the IC50 on RIPK1 was at least 1000 nM.
Take `O=C(NCc1ccc(N2CCOCC2)cc1)c1c[nH]c2ccc(-c3ccc4nc(NC(=O)C5CC5)sc4n3)cc12` [Compound 99]: in the assay with HT-29 cells, the EC50 is at least 1000 nM. Also, on RIPK1, the half-inhibitory concentration (IC50) was at least 1000 nM.
For the compound `Cn1cc(C(=O)NCc2ccc(N3CCOCC3)cc2)c2cc(-c3ccc4nc(NC(=O)C5CC5)sc4n3)ccc21` [Compound 100], the EC50 with HT-29 cells is at least 1000 nM. The IC50 at RIPK1 is at least 1000 nM.
For the compound `Cc1ccc(CCNC(=O)c2n[nH]c3ccc(-c4ccc5c(N)ncnn45)cc23)cc1` [Compound 101], the EC50 with HT-29 cells is 100 to 1000 nM. On RIPK1, the IC50 is 10 to 100 nM.
The matching figures for `Nc1ncnn2c(-c3ccc4[nH]nc(C(=O)NCCc5cccc(F)c5)c4c3)ccc12` [Compound 102]: 100 to 1000 nM and 100 to 1000 nM.
In the same order, the values of `Nc1ncnn2c(-c3ccc4[nH]nc(C(=O)NCCc5ccc(F)cc5)c4c3)ccc12` [Compound 103] are 100 to 1000 nM and 10 to 100 nM.
In the same order, the values of `C[C@H](NC(=O)c1cn(C)c2ccc(-c3ccc4c(NC(=O)C5CC5)n[nH]c4c3)cc12)c1cccc(F)c1` [Compound 104] are below 1 nM and 1 to 10 nM.
Take `CC(C)C(=O)Nc1nc2cc(-c3ccc4c(c3)c(C(=O)NC(C)c3ccccc3)cn4C)ccn2n1` (centres unmarked) [Compound 105]: the half-maximal effective concentration (EC50) in the assay on HT-29 cells lay within 1 to 10 nM. Moreover, the half-inhibitory concentration (IC50) on RIPK1 is 10 to 100 nM.
Turning to `CC(C)C(=O)Nc1nc2cc(-c3ccc4c(c3)c(C(=O)N[C@@H](C)c3cccc(F)c3)cn4C)ccn2n1` [Compound 106], the EC50 with HT-29 cells was below 1 nM. The IC50 on RIPK1 was in the range of 1 to 10 nM.
In the same order, the values of `CC(C)C(=O)Nc1nc2ccc(-c3ccc4c(c3)c(C(=O)N[C@@H](C)c3cccc(F)c3)cn4C)cn2n1` [Compound 107] are 1 to 10 nM and 10 to 100 nM.
In the same order, the values of `C[C@H](NC(=O)c1cn(C)c2ccc(-c3ccn4nc(NC(=O)C5CC5)cc4n3)cc12)c1cccc(F)c1` [Compound 108] are 1 to 10 nM and 1 to 10 nM.
In the same order, the values of `C[C@H](NC(=O)c1cn(C)c2ccc(-c3ccc4nc(NC(=O)C5CC5)cn4n3)cc12)c1cccc(F)c1` [Compound 109] are below 1 nM and 1 to 10 nM.
Take `CCn1cc(C(=O)N[C@@H](C)c2cccc(F)c2)c2cc(-c3ccc4c(NC(=O)C5CC5)n[nH]c4c3)ccc21` [Compound 111]: in the assay on HT-29 cells, the EC50 is below 1 nM. Moreover, on RIPK1, the IC50 lay within 1 to 10 nM.
In the same order, the values of `CC(C)n1cc(C(=O)N[C@@H](C)c2cccc(F)c2)c2cc(-c3ccc4c(NC(=O)C5CC5)n[nH]c4c3)ccc21` [Compound 112] are 1 to 10 nM and 10 to 100 nM.
For `CCCn1cc(C(=O)N[C@@H](C)c2cccc(F)c2)c2cc(-c3ccc4c(NC(=O)C5CC5)n[nH]c4c3)ccc21` [Compound 113], the EC50 with HT-29 cells lay within 1 to 10 nM. Moreover, the IC50 at RIPK1 fell in the range of 1 to 10 nM.
In the case of `CC(C)Cn1cc(C(=O)N[C@@H](C)c2cccc(F)c2)c2cc(-c3ccc4c(NC(=O)C5CC5)n[nH]c4c3)ccc21` [Compound 115], the EC50 in the assay on HT-29 cells is 10 to 100 nM. At RIPK1, the IC50 lay within 1 to 10 nM.
In the same order, the values of `COCCn1cc(C(=O)N[C@@H](C)c2cccc(F)c2)c2cc(-c3ccc4c(NC(=O)C5CC5)n[nH]c4c3)ccc21` [Compound 116] are 10 to 100 nM and 1 to 10 nM.
For `C[C@H](NC(=O)c1cn(C)c2ccc(-c3ccc4c(NC(=O)C5CC5)c[nH]c4c3)cc12)c1cccc(F)c1` [Compound 117], the EC50 in the assay with HT-29 cells fell in the range of 10 to 100 nM. Besides, on RIPK1, the IC50 was 10 to 100 nM.
Take `C[C@H](NC(=O)c1cn(C)c2ccc(-c3ccc4c(C(=O)NC5CC5)c[nH]c4c3)cc12)c1cccc(F)c1` [Compound 118]: in the assay with HT-29 cells, the EC50 lay within 1 to 10 nM. The IC50 at RIPK1 was in the range of 10 to 100 nM.
In the same order, the values of `C[C@H](NC(=O)c1cn(C)c2ccc(-c3ccc4c(C(=O)NCC(C)(C)C)c[nH]c4c3)cc12)c1cccc(F)c1` [Compound 119] are 1 to 10 nM and 1 to 10 nM.
In the same order, the values of `Cc1ccc([C@H](C)NC(=O)c2cn(C)c3ccc(-c4ccn5nc(NC(=O)C6CC6)nc5c4)cc23)cc1` [Compound 120] are below 1 nM and 1 to 10 nM.
The matching figures for `CC(C)C(=O)Nc1nc2cc(-c3ccc4c(c3)c(C(=O)N[C@H](C)c3ccccc3)cn4C)ccn2n1` [Compound 121]: 1 to 10 nM and 10 to 100 nM.
Consider `CC(C)C(=O)Nc1nc2cc(-c3ccc4c(c3)c(C(=O)N[C@@H](C)c3ccccc3)cn4C)ccn2n1` [Compound 122], for which the EC50 in the assay on HT-29 cells is below 1 nM. Further, the IC50 on RIPK1 is 1 to 10 nM.
The matching figures for `CC(C)C(=O)Nc1nc2cc(-c3ccc4c(c3)c(C(=O)NC(C)(C)c3ccccc3)cn4C)ccn2n1` [Compound 123]: 1 to 10 nM and 10 to 100 nM.
The matching figures for `CC(C)C(=O)Nc1nc2cc(-c3ccc4c(c3)c(C(=O)NC(C)c3cccc(F)c3)cn4C)ccn2n1` (centres unmarked) [Compound 124]: 1 to 10 nM and 10 to 100 nM.
In the case of `CC(C)C(=O)Nc1nc2cc(-c3ccc4c(c3)c(C(=O)N[C@H](C)c3cccc(F)c3)cn4C)ccn2n1` [Compound 125], in the assay with HT-29 cells, the EC50 is at least 1000 nM. On RIPK1, the concentration for half-maximal inhibition (IC50) was at least 1000 nM.
As for `CC(C)C(=O)Nc1nc2cc(-c3ccc4c(c3)c(C(=O)N[C@H](C)c3cccc(Cl)c3)cn4C)ccn2n1` [Compound 126], in the assay with HT-29 cells, the EC50 lay in the range of 10 to 100 nM. For the same compound, the IC50 at RIPK1 lay within 10 to 100 nM.
On to `CC(C)C(=O)Nc1nc2cc(-c3ccc4c(c3)c(C(=O)N[C@@H](C)c3cccc(Cl)c3)cn4C)ccn2n1` [Compound 127], for which, in the assay on HT-29 cells, the concentration for a half-maximal effect (EC50) is below 1 nM. Besides, the IC50 at RIPK1 was in the range of 10 to 100 nM.
In the same order, the values of `COc1cccc([C@@H](C)NC(=O)c2cn(C)c3ccc(-c4ccn5nc(NC(=O)C(C)C)nc5c4)cc23)c1` [Compound 128] are 100 to 1000 nM and 100 to 1000 nM.
In the same order, the values of `COc1cccc([C@H](C)NC(=O)c2cn(C)c3ccc(-c4ccn5nc(NC(=O)C(C)C)nc5c4)cc23)c1` [Compound 129] are 1 to 10 nM and 10 to 100 nM.
The matching figures for `CC(C)C(=O)Nc1nc2cc(-c3ccc4c(c3)c(C(=O)NC(C)c3ccc(F)cc3)cn4C)ccn2n1` (centres unmarked) [Compound 130]: 1 to 10 nM and 10 to 100 nM.
On to `CC(C)C(=O)Nc1nc2cc(-c3ccc4c(c3)c(C(=O)N[C@@H](C)c3ccc(F)cc3)cn4C)ccn2n1` [Compound 131], for which, in the assay with HT-29 cells, the concentration giving a half-maximal response (EC50) was below 1 nM. Moreover, the IC50 at RIPK1 fell in the range of 10 to 100 nM.
In the same order, the values of `CC(C)C(=O)Nc1nc2cc(-c3ccc4c(c3)c(C(=O)N[C@H](C)c3ccc(F)cc3)cn4C)ccn2n1` [Compound 132] are 100 to 1000 nM and 100 to 1000 nM.
The matching figures for `COc1ccc([C@H](C)NC(=O)c2cn(C)c3ccc(-c4ccn5nc(NC(=O)C(C)C)nc5c4)cc23)cc1` [Compound 133]: below 1 nM and 10 to 100 nM.
On to `COc1ccc([C@@H](C)NC(=O)c2cn(C)c3ccc(-c4ccn5nc(NC(=O)C(C)C)nc5c4)cc23)cc1` [Compound 134], for which the EC50 with HT-29 cells was in the range of 100 to 1000 nM. Besides, the IC50 at RIPK1 was at least 1000 nM.
In the same order, the values of `CC(C)C(=O)Nc1nc2cc(-c3ccc4c(c3)c(C(=O)NC(C)c3ccccn3)cn4C)ccn2n1` (centres unmarked) [Compound 135] are 1 to 10 nM and 10 to 100 nM.
In the same order, the values of `CC(C)C(=O)Nc1nc2cc(-c3ccc4c(c3)c(C(=O)N[C@H](C)c3ccccn3)cn4C)ccn2n1` [Compound 136] are 10 to 100 nM and 100 to 1000 nM.
Regarding `CC(C)C(=O)Nc1nc2cc(-c3ccc4c(c3)c(C(=O)N[C@@H](C)c3ccccn3)cn4C)ccn2n1` [Compound 137], in the assay with HT-29 cells, the EC50 is below 1 nM. In addition, the IC50 on RIPK1 lay within 10 to 100 nM.
In the same order, the values of `CC(C)C(=O)Nc1nc2cc(-c3ccc4c(c3)c(C(=O)NC(C)c3cccnc3)cn4C)ccn2n1` (centres unmarked) [Compound 138] are at least 1000 nM and at least 1000 nM.
As to `CC(C)C(=O)Nc1nc2cc(-c3ccc4c(c3)c(C(=O)NC(C)c3ccncc3)cn4C)ccn2n1` (centres unmarked) [Compound 139], the EC50 with HT-29 cells lay in the range of 10 to 100 nM. At RIPK1, the IC50 is 10 to 100 nM.
As for `CC(C)C(=O)Nc1nc2cc(-c3ccc4c(c3)c(C(=O)N[C@H]3CCCc5ccccc53)cn4C)ccn2n1` [Compound 140], the EC50 in the assay on HT-29 cells was in the range of 10 to 100 nM. Also, the IC50 at RIPK1 was in the range of 100 to 1000 nM.
The matching figures for `C[C@H](NC(=O)c1cn(C)c2ccc(-c3ccn4nc(N)nc4c3)cc12)c1cccc(F)c1` [Compound 141, (S)-5-(2-amino-[1,2,4]triazolo[1,5-a]pyridin-7-yl)-N-(1-(3-fluorophenyl)ethyl)-1-methyl-1H-indole-3-carboxamide]: 1 to 10 nM and 10 to 100 nM.
